This passage reports LC retention time results from the RepoRT retention time repository (doi:10.1016/j.foodchem.2021.129757).

Common to all, as to conditions: stereoisomer not certain
A short description of series [1]: RP, 150 × 2.1 mm, 2.6 µm, 40 °C, 0.35 mL/min, estimated dead time 0.94 min; A: water + 0.1% formic acid, pH 3; B: acetonitrile + 0.1% formic acid, pH 3; gradient (min/%B) 0/0 1/5 7/45 8.5/80 10.5/80 11/5 12/5.
Series [2] can be described thus: RP, 150 × 2.1 mm, 2.6 µm, 40 °C, 0.35 mL/min, estimated dead time 0.94 min; A: water + 0.1% formic acid, pH 3; B: acetonitrile + 0.1% formic acid, pH 3; gradient (min/%B) 0/0 1/0 12.5/100 14/100 14.2/0 15/0.
The nature of series [3]: RP, Waters ACQUITY UPLC BEH C18, 100 × 2.1 mm, 1.7 µm, 65 °C, 0.4 mL/min, estimated dead time 0.55 min; A: water + 0.1% formic acid, pH 3; B: 80% acetonitrile + 20% acetone + 0.1% formic acid, pH 3; gradient (min/%B) 0/0 5/100 5.5/0 6/0.
Series [4] is described as follows: RP, Agilent ZORBAX Eclipse XDB-C18, 100 × 2.1 mm, 1.8 µm, 50 °C, 0.4 mL/min, estimated dead time 0.55 min; A: water + 0.1% formic acid, pH 3; B: methanol + 0.1% formic acid, pH 3; gradient (min/%B) 0/2 10/100 14.5/100 14.51/2 16.5/2.
A short description of series [5]: RP, Phenomenex Synergi Hydro-RP, 250 × 2 mm, 4 µm, 25 °C, 0.2 mL/min, estimated dead time 2.5 min; A: water + 0.1% formic acid, pH 3; B: acetonitrile + 0.1% formic acid, pH 3; gradient (min/%B) 0/0.5 7/0.5 12/12.5 25/16.3 47/35 48/65 50/65 50.1/0.5.
Series [6] can be described thus: RP, Waters ACQUITY UPLC HSS T3, 100 × 2.1 mm, 1.8 µm, 30 °C, 0.4 mL/min, estimated dead time 0.55 min; A: water + 0.1% formic acid, pH 3; B: acetonitrile + 0.1% formic acid, pH 3; gradient (min/%B) 0/0 2/0 15/100 22/100 22.1/0 26/0.
Series [7] is described as follows: RP, Waters ACQUITY UPLC HSS T3, 100 × 2.1 mm, 50 °C; A: water + 0.1% formic acid, pH 3; B: 30% methanol + 70% acetonitrile + 0.1% formic acid, pH 3; gradient (min/%B) 0/5 1/8 2/15 3/40 4/70 4.5/100 5/100 6.4/100 6.6/5 6.8/5 7/5.

In the case of `NCC(=O)c1ccccc1` [2 aminoacetophenone], the LC retention time in series [1] was 6.86 min; in series [2] it was 6.84 min.
In the case of `O=C(O)CNC(=O)c1ccco1` [2-Furoylglycine], the LC retention time in series [1] is 2.35 min; in series [2] it was 2.51 min; in series [3], 1.51 min.
On to `O=C(O)c1cc2ccccc2[nH]1` [2-Indolecarboxylic acid], for which the LC retention time was 6.07 min in series [1] and 6.06 min in series [2].
On the same counts, the results for `O=C(O)C(O)CCc1ccccc1` (stereo unspecified) [2-hydroxy-4-phenylbutyric acid] are 6.6 min and 6.54 min.
On the same counts, the results for `COc1cc(CCC(=O)O)cc(OC)c1OC` [3-(3,4,5-Trimethoxyphenyl)propionic acid] are 6.73 min and 6.58 min.
On the same counts, the results for `Nc1c(O)cccc1C(=O)O` [3-Hydroxyanthranilic acid] are 2.89 min and 3.21 min.
`NC(=O)Cc1c[nH]c2ccccc12` [3-Indoleacetamide]: the LC retention time in series [1] was 5.15 min; in series [2], 5.28 min.
As for `O=C(O)CCCc1c[nH]c2ccccc12` [3-Indolebutyric acid], the LC retention time in series [1] is 7.97 min; in series [2], 7.63 min.
Consider `COc1cccc(O)c1O` [3-Methoxycatechol], for which the values for the LC retention time in series [1], in series [4] and in series [2] were 4.56 min, 3.2 min and 4.79 min, respectively.
Consider `O=C(O)CCc1ccccc1` [3-phenylpropionic acid], for which the LC retention time is 2.78 min in series [3] and 44.5 min in series [5].
For `O=c1cc(O)c2ccccc2o1` [4-hydroxycoumarin], the LC retention time in series [1] is 6.59 min; in series [2] it was 6.51 min.
On the same counts, the results for `Cc1cc(=O)oc2cc(O)ccc12` [4-methylumbelliferone] are 6.46 min and 6.41 min.
Taken in the same sequence, the figures for `COc1ccc2[nH]cc(CC(=O)O)c2c1` [5-Methoxyindoleacetic acid] were 6.29 min and 6.26 min.
Turning to `COc1cc2c(CCNC(C)=O)c[nH]c2cc1O` [6-Hydroxymelatonin], the LC retention time is 5.05 min in series [1] and 5.14 min in series [2].
Regarding `CC(C=CC1(O)C(C)=CC(=O)CC1(C)C)=CC(=O)O` (stereo unspecified) [Abscisic acid], the LC retention time in series [1] is 7.12 min; in series [2] it was 6.9 min.
Take `Cn1c(=O)c2c(ncn2C)n(C)c1=O` [Caffeine]: the LC retention time in series [6] was 8.11 min; in series [4], 3.67 min; in series [7], 3.1 min; in series [3], 1.67 min; in series [5], 21.3 min.
Turning to `O=C(O)CC(O)(CC(=O)O)C(=O)O` [Citric acid], the LC retention time in series [4] is 1.09 min; in series [7], 0.67 min; in series [5], 6.32 min.
In the case of `O=c1ccc2cc(OC3OC(CO)C(O)C(O)C3O)c(O)cc2o1` (stereo unspecified) [Esculin], the figures for the LC retention time in series [1] and in series [2] were 3.94 min and 4.11 min, respectively.
Take `Nc1nc2ncc(CNc3ccc(C(=O)NC(CCC(=O)O)C(=O)O)cc3)nc2c(=O)[nH]1` (stereo unspecified) [Folic acid]: the results for the LC retention time in series [4] and in series [5] were 3.46 min and 19 min, respectively.
Consider `COc1cc(CCC(=O)O)ccc1O` [Hydroferulic acid], for which the LC retention time in series [6] was 9.38 min; in series [5] it was 28.5 min.
For `O=c1c(OC2OC(CO)C(O)C(O)C2O)c(-c2ccc(O)cc2)oc2cc(O)cc(O)c12` [Kaempferol 3-O-D-galactoside], in series [5], the LC retention time was 37.2 min.
Take `COc1ccc2[nH]cc(CCNC(C)=O)c2c1` [Melatonin]: the LC retention time in series [1] was 6.35 min; in series [2] it was 6.29 min.
On the same counts, the results for `COC(=O)Cc1c[nH]c2ccccc12` [Methyl indole acetate] are 8.34 min and 8.01 min.
For `CCC=CCC1C(=O)CCC1CC(=O)OC` (stereo unspecified) [Methyl jasmonate], the LC retention time in series [1] was 7.97 min; in series [4], 7.77 min; in series [2] it was 7.64 min.
Regarding `CC(=O)NCCc1c[nH]c2ccc(O)cc12` [N-acetylserotonin], the LC retention time in series [1] was 4.5 min; in series [2], 4.69 min.
On the same counts, the results for `O=C1CC(c2ccc(O)cc2)Oc2cc(OC3OC(CO)C(O)C(O)C3O)cc(O)c21` (stereo unspecified) [Naringenin 7-O-glucoside] are 6.17 min and 6.02 min.
Consider `O=C(O)c1cccnc1` [Niacin], for which, in series [5], the LC retention time is 5.51 min.
Regarding `O=c1cc(-c2ccc(O)c(O)c2)oc2c(C3OC(CO)C(O)C(O)C3O)c(O)cc(O)c12` (stereo unspecified) [Orientin], the figures for the LC retention time in series [1] and in series [2] were 5.29 min and 5.3 min, respectively.
Regarding `O=C(O)CC(=O)OCC1OC(Oc2c(-c3ccc(O)c(O)c3)oc3cc(O)cc(O)c3c2=O)C(O)C(O)C1O` (stereo unspecified) [Quercetin 3-O-malonylglucoside], in series [5], the LC retention time is 37 min.
Same read-out and setting: next, `CC1OC(OCC2OC(Oc3c(-c4ccc(O)c(O)c4)oc4cc(OC5OC(CO)C(O)C(O)C5O)cc(O)c4c3=O)C(O)C(O)C2O)C(O)C(O)C1O` (stereo unspecified) [Quercetin 3-O-rutinoside-7-O-glucoside]: 20.6 min.
Take `O=c1c(O)c(-c2ccc(OC3OC(CO)C(O)C(O)C3O)c(O)c2)oc2cc(O)cc(O)c12` (stereo unspecified) [Quercetin 4-glucoside]: the LC retention time in series [1] is 6.25 min.
Take `CC(=O)OCC1OC(Oc2c(-c3ccc(O)c(O)c3)oc3cc(O)cc(O)c3c2=O)C(O)C(O)C1O` (stereo unspecified) [Quercetin-3-O-(6-acetylglucoside)]: the LC retention time in series [5] was 38.8 min.
Consider `O=c1c(OC2OC(CO)C(O)C(O)C2O)c(-c2ccc(O)c(O)c2)oc2cc(O)cc(O)c12` (stereo unspecified) [Quercetin-3-O-galactoside], for which the LC retention time in series [1] was 5.74 min; in series [2], 5.66 min.
Take `O=C(O)C1(O)CC(O)C(O)C(O)C1` (stereo unspecified) [Quinic acid]: the LC retention time in series [6] is 1.05 min; in series [7], 0.58 min; in series [5] it was 3.21 min.
For `CC1OC(OCC2OC(Oc3c(-c4ccc(O)cc4)oc4cc(OC5OC(C)C(O)C(O)C5O)cc(O)c4c3=O)C(O)C(O)C2O)C(O)C(O)C1O` (stereo unspecified) [Robinin], the LC retention time in series [5] is 31.8 min.
Turning to `NCCc1c[nH]c2ccc(O)cc12` [Serotonin], the LC retention time in series [1] is 1.45 min; in series [2], 1.54 min.
With `C=CCC(=NOS(=O)(=O)O)SC1OC(CO)C(O)C(O)C1O` (stereo unspecified) [Sinigrin], the LC retention time in series [5] is 5.52 min.
Consider `COc1cc(-c2oc3cc(O)cc(O)c3c(=O)c2OC2OC(CO)C(O)C(O)C2O)cc(OC)c1O` (stereo unspecified) [Syringetin-3-glucoside], for which the LC retention time was 6.17 min in series [1] and 6 min in series [2].
For the molecule `O=C(C=Cc1ccc(O)cc1)OCC1OC(Oc2c(-c3ccc(O)cc3)oc3cc(O)cc(O)c3c2=O)C(O)C(O)C1O` (stereo unspecified) [Tiliroside], the LC retention time in series [5] was 47 min.
For the molecule `O=S(=O)(O)c1[nH]c2ccccc2c1CCO` [Tryptophol-2-sulfonate], the LC retention time is 4.57 min in series [1] and 4.73 min in series [2].
On the same counts, the results for `OCCc1c[nH]c2ccccc12` [Tryptophol] are 6.48 min and 6.45 min.
In the case of `O=c1ccc2ccc(O)cc2o1` [Umbelliferone], the LC retention time in series [1] is 7.69 min; in series [6], 9.65 min; in series [2] it was 5.77 min.
For the molecule `O=c1[nH]c(=O)c2[nH]c(=O)[nH]c2[nH]1` [Uric acid], in series [5], the LC retention time is 7.67 min.
`COc1ccc(CC(=O)O)cc1OC` [homoveratric acid]: the LC retention time in series [5] was 32.5 min.
`O=C(O)c1cc(=O)c2ccccc2[nH]1` [kynurenic acid]: the LC retention time in series [1] was 4.06 min; in series [2], 4.3 min.
As for `COc1cccc(C(=O)O)c1` [m-Anisic acid], the LC retention time in series [5] is 40.2 min.
For the molecule `COc1ccccc1C(=O)O` [o-Anisic acid], in series [5], the LC retention time was 31.4 min.
On the same count and under the same terms, next, `O=C(O)CNCc1ccccc1O` [salicylglycine]: 27.4 min.
